In US20260256765A1, “METHOD OF TREATING DISEASE USING COMPOUND, AND USE OF COMPOUND” (TENNOR THERAPEUTICS (SUZHOU) LIMITED, priority 2023, published 2026):
In brackets after ≈: the same amount, converted by molar mass. Read-outs that look alike come from different tables or passages of the source.

Key:
Assay type in all cases: cell-based
[1] = test system: Gram-positive bacteria (55 strains); test: MIC by standard broth dilution against clinical DFI isolates, Gram-positive bacteria
Description: (§1) Preparation of test strains: In this example, foot specimens were collected from 49 patients with type II diabetes. Isolates were obtained from the specimens described above through homogenization, plating, and culture at 37° C., and after the removal of fungi and strains with poor growth or strains that could not be isolated and purified, a total of 69 clinical strains were obtained. Among these, 55 strains were Gram-positive bacteria and 14 strains were Gram-negative bacteria. Of the Gram-positive bacteria, 43 strains were staphylococci, including 18 Staphylococcus aureus strains, 8 Staphylococcus epidermidis strains, and 5 Staphylococcus lugdunensis strains. One ATCC standard strain was additionally used as a standard and quality control strain.
(§2) Determination of antibacterial activity: The minimum inhibitory concentration (MIC) and the minimum biofilm bactericidal concentration (MBBC) for in vitro biofilms of the compound of formula (I) and control drugs (see details in 2) against 69 clinically isolated diabetic foot infection clinical strains were evaluated using the standard broth dilution method and the in vitro biofilm culture and drug susceptibility methods reported in the literature.

[2] = test system: Gram-negative bacteria (14 strains); test: MIC by standard broth dilution against clinical DFI isolates, Gram-negative bacteria
Description: as §1, §2

[3] = test system: Gram-positive bacteria (55 strains); test: MBBC for in vitro biofilms of clinical DFI isolates, Gram-positive bacteria
Description: as §1
(§3) Preparation of biofilms: In a sterile environment, a single, identified, and thawed colony was picked with an inoculation loop and bacterial inoculums were adjusted to a 0.5 McFarland standard, which served as an initial bacterial inoculum. The bacterial inoculum was diluted in a 1:200 ratio by adding 50 μL of the initial bacterial inoculums to 10 mL of a CAMHB medium. 150 μL of the bacterial inoculums was transferred to a CBD plate using a pipette. The inoculated CBD plate was incubated in an incubator at 35±2° C. for 16-20 hours.
as §2

[4] = test system: Gram-negative bacteria (14 strains); test: MBBC for in vitro biofilms of clinical DFI isolates, Gram-negative bacteria
Description: as §1, §3, §2

[5] = test system: Staphylococci (43 strains); test: MIC against clinical DFI isolates, staphylococci total
Description: as §1, §2

[6] = test system: Staphylococcus aureus (18 strains); test: MIC against clinical DFI isolates, Staphylococcus aureus
Description: as §1, §2

[7] = test system: Staphylococcus epidermidis (8 strains); test: MIC against clinical DFI isolates, Staphylococcus epidermidis
Description: as §1, §2

[8] = test system: Staphylococci (43 strains); test: MBBC against biofilms of clinical DFI isolates, staphylococci total
Description: as §1, §3, §2

[9] = test system: Staphylococcus aureus (18 strains); test: MBBC against biofilms of clinical DFI isolates, Staphylococcus aureus
Description: as §1, §3, §2

[10] = test system: Staphylococcus epidermidis (8 strains); test: MBBC against biofilms of clinical DFI isolates, Staphylococcus epidermidis
Description: as §1, with “strain. […]” for “strain.”
as §2

[11] = Gram-positive bacteria (55 strains), clinical DFI isolates
[12] = Gram-positive bacteria (55 strains), clinical DFI isolates, read-out: MIC50
[13] = biofilms, Gram-positive bacteria (55 strains), read-out: MBBC50
[14] = biofilms, Gram-positive bacteria (55 strains), read-out: MBBC90
[15] = Staphylococci (43 strains), total
[16] = Staphylococci (43 strains), total, read-out: MIC50
[17] = Staphylococci (43 strains), total, read-out: MIC90
[18] = Staphylococcus aureus (18 strains)
[19] = Staphylococcus aureus (18 strains), read-out: MIC50
[20] = Staphylococcus aureus (18 strains), read-out: MIC90
[21] = biofilms, Staphylococci (43 strains), total, read-out: MBBC50
[22] = biofilms, Staphylococci (43 strains), total, read-out: MBBC90
[23] = biofilms, Staphylococcus aureus (18 strains)
[24] = biofilms, Staphylococcus aureus (18 strains), read-out: MBBC50
[25] = biofilms, Staphylococcus aureus (18 strains), read-out: MBBC90
[26] = biofilms, Gram-positive bacteria (55 strains)

Compound	MIC90 [1, 11] [µg/mL]	MIC50 [1, 12] [µg/mL]	MIC50 [2] [µg/mL]	MIC90 [2] [µg/mL]	MBC [3, 13] [µg/mL]	MBC [3, 14] [µg/mL]	MBC ([4]; read-out: MBBC50) [µg/mL]	MBC ([4]; read-out: MBBC90) [µg/mL]	MIC range [5, 15]	MIC50 [5, 16] [µg/mL]	MIC90 [5, 17] [µg/mL]	MIC range [6, 18]	MIC50 [6, 19] [µg/mL]	MIC90 [6, 20] [µg/mL]	MIC range [7]	MBC [8, 21] [µg/mL]	MBC [8, 22] [µg/mL]	MBC [9, 24] [µg/mL]	MBC [9, 25] [µg/mL]	also measured
CO[C@H]1/C=C/O[C@@]2(C)Oc3c(C)c(O)c4c(O)c(c(/C=N/N5CCC(N(C)C6([C@@H]7CCN(c8c(F)cn9c(=O)c(C(=O)O)cc(C%10CC%10)c9c8C)C7)CC6)CC5)c(O)c4c3C2=O)NC(=O)/C(C)=C\C=C\[C@H](C)[C@H](O)[C@@H](C)[C@@H](O)[C@@H](C)[C@H](OC(C)=O)[C@@H]1C [Compound of formula (I)]	0.25	≤ 0.015	> 32	> 32	0.125	16	> 16	> 32	≤0.015~0.25 μg/mL	≤ 0.015	≤ 0.015	≤0.015~0.03 μg/mL	≤ 0.015	≤ 0.015	≤0.015~0.03 ^ μg/mL	0.06	0.5	0.25	0.5	MIC50 ([1]; Gram-positive bacterial isolates, text b97): < 0.015 µg/mL; MIC50 ([5]; staphylococci, read-out: MIC50): < 0.015 µg/mL; MIC90 ([5]; staphylococci, read-out: MIC90): 0.015 µg/mL; MIC50 ([6]; Staphylococcus aureus, read-out: MIC50): < 0.015 µg/mL; MIC90 ([6]; Staphylococcus aureus, read-out: MIC90): 0.015 µg/mL; MBBC range ([8]; biofilms, Staphylococci (43 strains), total): ≤0.015~1 μg/mL; MBBC range ([8]; in vitro biofilms of staphylococci): 0.015 to 1 g/mL; MBBC50 ([8]; staphylococci biofilms): 0.06 µg/mL; MBBC90 ([8]; staphylococci biofilms): 0.5 µg/mL; MBBC50 ([9]; Staphylococcus aureus biofilms): 0.25 µg/mL; MBBC range [9, 23]: 0.03~0.5 μg/mL; MBBC range ([9]; in vitro biofilms of Staphylococcus aureus): 0.03 to 0.5 g/mL; MBBC range [10]: ≤0.015~0.06 ^ μg/mL
CC(=O)NC[C@H]1CN(c2ccc(N3CCOCC3)c(F)c2)C(=O)O1 [Linezolid]			> 128	> 128	> 128	> 128	> 128	> 128	0.5~4 μg/mL	2 (≈ 5.93 µM)	4 (≈ 11.9 µM)	2~4 μg/mL	2 (≈ 5.93 µM)	4 (≈ 11.9 µM)	2~4 μg/mL	> 128	> 128	> 128	> 128	MBBC50 [3, 26]: >128 µg/mL; MBBC90 [3, 26]: >128 µg/mL; MIC50 ([5]; staphylococci, read-out: MIC50): 2 µg/mL (≈ 5.93 µM); MIC90 ([5]; staphylococci, read-out: MIC90): 4 µg/mL (≈ 11.9 µM)
CN[C@H](CC(C)C)C(=O)N[C@H]1C(=O)N[C@@H](CC(N)=O)C(=O)N[C@H]2C(=O)N[C@H]3C(=O)N[C@H](C(=O)N[C@H](C(=O)O)c4cc(O)cc(O)c4-c4cc3ccc4O)[C@H](O)c3ccc(c(Cl)c3)Oc3cc2cc(c3O[C@@H]2O[C@H](CO)[C@@H](O)[C@H](O)[C@H]2O[C@H]2C[C@](C)(N)[C@H](O)[C@H](C)O2)Oc2ccc(cc2Cl)[C@H]1O [Vancomycin]	2 (≈ 1.38 µM)	2 (≈ 1.38 µM)	> 128	> 128			> 128	> 128	1~4 μg/mL			1~2 μg/mL			2~4 μg/mL					MBBC50 [3, 26]: >128 µg/mL; MBBC90 [3, 26]: >128 µg/mL; MBC ([3]; read-out: MBBC50): > 128 µg/mL; MBC ([3]; read-out: MBBC90): > 128 µg/mL; MIC50 [5]: 2 µg/mL (≈ 1.38 µM); MIC90 [5]: 2 µg/mL (≈ 1.38 µM); MIC50 ([5]; staphylococci): 2 µg/mL (≈ 1.38 µM); MIC90 ([5]; staphylococci): 2 µg/mL (≈ 1.38 µM); MIC50 ([6]; Staphylococcus aureus): 2 µg/mL (≈ 1.38 µM); MIC90 ([6]; Staphylococcus aureus): 2 µg/mL (≈ 1.38 µM); MBC ([8]; read-out: MBBC50): > 128 µg/mL; MBC ([8]; read-out: MBBC90): > 128 µg/mL; MBC ([9]; Staphylococcus aureus, read-out: MBBC50): > 128 µg/mL; MBC ([9]; Staphylococcus aureus, read-out: MBBC90): > 128 µg/mL
Cc1onc(-c2ccccc2)c1C(=O)N[C@@H]1C(=O)N2[C@@H]1SC(C)(C)[C@@H]2C(=O)O [Oxacillin]			> 128	> 128	> 128	> 128	> 128	> 128		2 (≈ 4.98 µM)	128 (≈ 319 µM)		0.5 (≈ 1.25 µM)	64 (≈ 159 µM)		> 128	> 128	32 (≈ 79.7 µM)	> 128	
C/C(=C\C(=O)OCCCCCCCCC(=O)O)C[C@@H]1OC[C@H](C[C@@H]2O[C@H]2[C@@H](C)[C@H](C)O)[C@@H](O)[C@H]1O [Mupirocin]	64 (≈ 128 µM)		> 128	> 128	> 128	> 128	> 128	> 128		0.25 (≈ 0.499 µM)	32 (≈ 63.9 µM)		0.25 (≈ 0.499 µM)	> 128	0.25~0.5 μg/mL	> 128	> 128	> 128	> 128	
CO[C@H]1/C=C/O[C@@]2(C)Oc3c(C)c(O)c4c(O)c(c(/C=N/N5CCN(C)CC5)c(O)c4c3C2=O)NC(=O)/C(C)=C\C=C\[C@H](C)[C@H](O)[C@@H](C)[C@@H](O)[C@@H](C)[C@H](OC(C)=O)[C@@H]1C [Rifampicin]	0.5 (≈ 0.608 µM)	≤ 0.015	32 (≈ 38.9 µM)	> 32	8 (≈ 9.72 µM)	> 16	> 16	> 32		≤ 0.015	≤ 0.015	≤0.015 µg/mL	≤ 0.015	≤ 0.015	≤0.015 µg/mL	4 (≈ 4.86 µM)	> 16	16 (≈ 19.4 µM)	> 16	MBBC range [9, 23]: ≤0.03~16 ^ μg/mL; MBBC range [10]: 0.03~16 ^ μg/mL
CCC[C@@H]1C[C@@H](C(=O)N[C@@H]([C@H]2O[C@H](SC)[C@H](O)[C@@H](O)[C@H]2O)[C@H](C)Cl)N(C)C1 [Clindamycin]	> 128	0.25 (≈ 0.588 µM)	> 128	> 128	> 128	> 128	> 128	> 128			128 (≈ 301 µM)	≤0.06~0.5 μg/mL		0.25 (≈ 0.588 µM)		> 128	> 128	> 128	> 128	MIC50 [5]: 0.125 µg/mL (≈ 0.294 µM); MIC50 ([6]; Staphylococcus aureus): 0.125 µg/mL (≈ 0.294 µM)
